According to paper PMC4710522, “A Novel Triazolopyridine-Based Spleen Tyrosine Kinase Inhibitor That Arrests Joint Inflammation” (PLoS ONE, 2016):
One block for each compound: values may come before it.

Assays:
[1] = tested on: rat collagen-induced arthritis model; test: rat collagen-induced arthritis (CIA) model, paw swelling; format: in vivo; settings: Indomethacin 2 mg/kg oral, p<0.01
Method: Female Lewis rats (150 – 170g; Charles River Laboratories) were house standard shoebox cages, fed Harlan-Tekald diet and water ad libitum and maintained on a 12h light/dark cycle. For induction of arthritis rats were anesthetized with isofluorane and their entire dorsal area shaved. Rats were injected (intradermal) with 100 μl of equal volumes of collagen (Chrondrex, Redmond, WA) and IFA (Sigma Chemicals, St. Louis, MO) emulsion in 10 sites across the dorsal region. At disease onset 11 days following immunization animals were randomized into groups based on their ankle measurements and test article administration was initiated. Rats were dosed orally with vehicle (20% Captisol®), Indomethacin (Sigma Chemicals, St. Louis, MO, 2mg/kg) or CC-509 (15, 25mg/kg QD or 15mg/kg BID) in a dose volume of 5ml/kg. […] On the last day of the study animals were split into 2 cohorts and bleed twice via tail bleed under isofluorane anesthesia and a third terminal bleed following CO2 asphyxiation to obtain a time course of plasma compound exposure at 30minutes, 1, 2, 4, 8 and 24h after the last dose of CC-509.
For the TEL-Syk assay, the intensity values for the 700 and 800 channel were exported as text files in ActivityBase (IDBS, Guildford, UK) to derive the ratios that reflect kinase activity. For LAD2 experiments, enzyme activity values were exported as text files into ActivityBase to calculate “percent release” according to the formula: 100* supernatant OD405/ (supernatant OD405 + (pellet OD405*pellet dilution factor)). For the basophil and B-cells assays, flow cytometry data was exported from the FACS Array and processed using FloJo software package (TreeStar, Inc., Ashland, Oregon). For the JAK2 HEL and Ramos NFAT β-lactamase assays, the fluorescence values obtained at 460 nm and 530 nm were exported into ActivityBase to calculate response ratios. For the neutrophil, macrophage, KDR, and JAK1/3 assays, raw values were exported into ActivityBase to calculate percent inhibition. All IC50 calculations were generated using XLfit (IDBS, Guildford, UK) algorithm 205 within Excel. For PCA, the OD from the saline injected site was subtracted from the OD from the anti-DNP IgE injected site. Evans blue dye extravasation was expressed as mean ± SEM and % inhibition for the test article groups was normalized to the cromolyn positive control. For the CIA model paw measurements (left and right ankle diameter) were taken for each individual animal and averaged. The mean data from each group was plotted and either the AUC(day 11–18) or % inhibition on day 18 was calculated. Data is expressed as mean ± SEM of each group with n = 6–12. Statistical analysis was performed with Prism Graphpad using one-way ANOVA followed by Dunnett’s comparison using the vehicle group as the control or for measurements over time a 2 way ANOVA followed by a Dunnett’s multiple comparison test. Statistical significance was deemed as * = p<0.05, **p<0.01, ***p<0.001 and p<0.0001.

[2] = tested on: proinflammatory analytes in paw tissue; test: inflammatory cytokines measured in the paw, rat CIA; format: in vivo; settings: day 18; CC-509 all dose levels p<0.01; indomethacin p<0.05
Method: Following the last administration of CC-509, paw samples were collected and processed for cytokine and chemokine analysis (Aushon Biosciences, Billerica, MA). Briefly paws were snap-frozen and pulverized in liquid nitrogen followed by addition of cell signal lysis buffer in the presence of protease and phosphatase inhibitors (Sigma Chemicals, St. Louis, MO). Samples were homogenized on high speed for 30 seconds, incubated on ice for 20 minutes then sonicated at high intensity for 1 minute. Samples were spun at high speed and supernatants were collected for cytokine analysis.

[3] = tested on: Tel-Syk expressing BaF3 cells; test: Tel-Syk BaF3 viability assay (growth factor-independent growth); format: cell-based, murine; settings: Tel-Syk BaF3, absence of IL-3
Method: HEK293 T-REx™ (Life Technologies, Grand Island, NY) stably transfected with human TEL-Syk (cloned as described prior section DNA constructs) were plated on black poly-D-lysine coated 96-well plates (BD Biosciences, San Diego, CA) in culture media containing tetracycline-free fetal bovine serum (Clontech, MountainView, CA) for 16 hours in a tissue culture incubator. Tel-Syk expression was induced for 6 hours in fresh growth media containing 1 μg/ml tetracycline (Sigma Chemicals, St. Louis, MO). Plates were preincubated with CC-509 for 90 minutes, fixed immediately with 4% formaldehyde in 1X PBS for 20 min at room temperature, and washed/permeabilized 5-times with PBS containing 0.1% Triton X-100. Plates were blocked with Odyssey Blocking Buffer for 90 minutes at room temperature and incubated overnight at 4°C on a rotating platform with rabbit phospho-Syk (1:1000) and mouse V5 (1:2500) primary antibodies diluted in Odyssey Blocking Buffer. […] Viability of BaF/3 cells expressing Tel-Syk grown in the absence of murine IL-3 was measured using Cell-Titer Glo reagent (Promega, Madison, WI), as described by supplier.

[4] = design: method as in PMID 19096013; settings: chronic and refractory ITP; cited from earlier work
[5] = tested on: rat passive cutaneous anaphylaxis model; test: rat passive cutaneous anaphylaxis (PCA) model; format: in vivo; settings: positive control cromolyn 100 mg/kg IV, p<0.001
Method: On day 0, male CD-IGS rats (170 – 190g; Charles River Laboratories) were anesthetized with isofluorane, their dorsal region shaved and 50 μl Anti-DNP-IgE (Clone SPE-7, Sigma, St. Louis, MO) that had been diluted 1:1000 in saline was injected via the intradermal route at 3 individual spots along the right side of the back. Saline was injected via the intradermal route at 3 individual spots along the left side of the back as a sham control. Twenty-four hours later, 200 μl of BSA-DNP (Calbiochem, San Diego, CA), prepared (1 mg prepared in a 2% solution of Evans blue dye: Sigma Chemicals, St. Louis, MO) was injected via the IV route via the tail vein. Thirty minutes after the BSA-DNP challenge the experiment was terminated and skin samples from the middle of each injection site taken for Evans blue dye measurement at an OD measurement at 620nm on a plate reader following incubation (2h at 90°C) and homogenization in formamide (Sigma Chemicals, St. Louis, MO). Vehicle (20% Captisol® (Captisol), PO), the positive control (Cromolyn: Sigma Chemicals, St. Louis, MO 100mg/kg, 2mL/kg, IV) or CC0484509 (3 and 10mg/kg, PO) were dosed 1h prior to the IV challenge with BSA-DNP.
For the TEL-Syk assay, the intensity values for the 700 and 800 channel were exported as text files in ActivityBase (IDBS, Guildford, UK) to derive the ratios that reflect kinase activity. For LAD2 experiments, enzyme activity values were exported as text files into ActivityBase to calculate “percent release” according to the formula: 100* supernatant OD405/ (supernatant OD405 + (pellet OD405*pellet dilution factor)). For the basophil and B-cells assays, flow cytometry data was exported from the FACS Array and processed using FloJo software package (TreeStar, Inc., Ashland, Oregon). For the JAK2 HEL and Ramos NFAT β-lactamase assays, the fluorescence values obtained at 460 nm and 530 nm were exported into ActivityBase to calculate response ratios. For the neutrophil, macrophage, KDR, and JAK1/3 assays, raw values were exported into ActivityBase to calculate percent inhibition. All IC50 calculations were generated using XLfit (IDBS, Guildford, UK) algorithm 205 within Excel. For PCA, the OD from the saline injected site was subtracted from the OD from the anti-DNP IgE injected site. Evans blue dye extravasation was expressed as mean ± SEM and % inhibition for the test article groups was normalized to the cromolyn positive control. For the CIA model paw measurements (left and right ankle diameter) were taken for each individual animal and averaged. The mean data from each group was plotted and either the AUC(day 11–18) or % inhibition on day 18 was calculated. Data is expressed as mean ± SEM of each group with n = 6–12. […]

SMILES: COc1ccc2c(c1)c(CC(=O)O)c(C)n2C(=O)c1ccc(Cl)cc1 [indomethacin, reference compound]
- inhibition of paw swelling [1]: 82%
- MIP-1α in the paw [2]: significantly inhibited

- IC50 [3]: 2240 ± 290 nM
SMILES: NCCNc1ncc(C(N)=O)c(Nc2cccc(C(F)(F)F)c2)n1 [Syk II inhibitor, reference compound]

SMILES: COc1cc(Nc2ncc(F)c(Nc3ccc4c(n3)N(COP(=O)(O)O)C(=O)C(C)(C)O4)n2)cc(OC)c1OC [fostamatinib]
- patients with durable platelet responses [4]: 8/16

SMILES: O=C(O)c1cc(=O)c2c(OCC(O)COc3cccc4oc(C(=O)O)cc(=O)c34)cccc2o1 [cromolyn, reference compound]
- inhibition of skin edema compared to vehicle control group [5]: 79%
